# Data: paper PMC4174996 (Journal of Medicinal Chemistry, 2014)
# Experiment: Serum stability test
# Assay type: in vitro ADME
# Conditions: human, diluted human serum (25%)
structure (smiles),measurement,value
CC[C@H](C)[C@H](NC(=O)[C@@H](NC(=O)[C@@H]1CCCN1C(=O)[C@H](Cc1c[nH]cn1)NC(=O)[C@@H]1CCCN1C(=O)CN)C(C)C)C(=O)N[C@H](C(=O)N[C@H](C(=O)N[C@H](C(=O)NCC(=O)N1CCC[C@H]1C(=O)N[C@@H](Cc1c[nH]cn1)C(=O)N[C@@H](CCC(=O)O)C(=O)N[C@@H](CCC(=O)O)C(N)=O)[C@@H](C)O)[C@@H](C)CC)C(C)C [VIVIT],half-life at 50 µM,~1 h
